Measured values taken from ChEMBL document CHEMBL1201862, “PubChem BioAssay data set” (2004).
One block for each compound: values may come before it. Calls of active or inactive are those of the source.

Tests used:
[1] = inhibitors of Vif binding to APOBEC3G peptide, primary screen, biochemical, TR-FRET, GST-Vif 1-94, biotin-A3G peptide, dose response retest (AID 1117319); format: functional;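 note: TR-FRET signal of purified GST-Vif binding a biotinylated A3G peptide; inhibitors lower the FRET signal by blocking Vif and A3G binding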
[2] = target: Voltage-dependent T-type calcium channel subunit alpha-1H (Homo sapiens, UniProt O95180); format: functional;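 note: channel activity triggered by adding a high calcium stimulation buffer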
Sequence of Voltage-dependent T-type calcium channel subunit alpha-1H (O95180 whole entry): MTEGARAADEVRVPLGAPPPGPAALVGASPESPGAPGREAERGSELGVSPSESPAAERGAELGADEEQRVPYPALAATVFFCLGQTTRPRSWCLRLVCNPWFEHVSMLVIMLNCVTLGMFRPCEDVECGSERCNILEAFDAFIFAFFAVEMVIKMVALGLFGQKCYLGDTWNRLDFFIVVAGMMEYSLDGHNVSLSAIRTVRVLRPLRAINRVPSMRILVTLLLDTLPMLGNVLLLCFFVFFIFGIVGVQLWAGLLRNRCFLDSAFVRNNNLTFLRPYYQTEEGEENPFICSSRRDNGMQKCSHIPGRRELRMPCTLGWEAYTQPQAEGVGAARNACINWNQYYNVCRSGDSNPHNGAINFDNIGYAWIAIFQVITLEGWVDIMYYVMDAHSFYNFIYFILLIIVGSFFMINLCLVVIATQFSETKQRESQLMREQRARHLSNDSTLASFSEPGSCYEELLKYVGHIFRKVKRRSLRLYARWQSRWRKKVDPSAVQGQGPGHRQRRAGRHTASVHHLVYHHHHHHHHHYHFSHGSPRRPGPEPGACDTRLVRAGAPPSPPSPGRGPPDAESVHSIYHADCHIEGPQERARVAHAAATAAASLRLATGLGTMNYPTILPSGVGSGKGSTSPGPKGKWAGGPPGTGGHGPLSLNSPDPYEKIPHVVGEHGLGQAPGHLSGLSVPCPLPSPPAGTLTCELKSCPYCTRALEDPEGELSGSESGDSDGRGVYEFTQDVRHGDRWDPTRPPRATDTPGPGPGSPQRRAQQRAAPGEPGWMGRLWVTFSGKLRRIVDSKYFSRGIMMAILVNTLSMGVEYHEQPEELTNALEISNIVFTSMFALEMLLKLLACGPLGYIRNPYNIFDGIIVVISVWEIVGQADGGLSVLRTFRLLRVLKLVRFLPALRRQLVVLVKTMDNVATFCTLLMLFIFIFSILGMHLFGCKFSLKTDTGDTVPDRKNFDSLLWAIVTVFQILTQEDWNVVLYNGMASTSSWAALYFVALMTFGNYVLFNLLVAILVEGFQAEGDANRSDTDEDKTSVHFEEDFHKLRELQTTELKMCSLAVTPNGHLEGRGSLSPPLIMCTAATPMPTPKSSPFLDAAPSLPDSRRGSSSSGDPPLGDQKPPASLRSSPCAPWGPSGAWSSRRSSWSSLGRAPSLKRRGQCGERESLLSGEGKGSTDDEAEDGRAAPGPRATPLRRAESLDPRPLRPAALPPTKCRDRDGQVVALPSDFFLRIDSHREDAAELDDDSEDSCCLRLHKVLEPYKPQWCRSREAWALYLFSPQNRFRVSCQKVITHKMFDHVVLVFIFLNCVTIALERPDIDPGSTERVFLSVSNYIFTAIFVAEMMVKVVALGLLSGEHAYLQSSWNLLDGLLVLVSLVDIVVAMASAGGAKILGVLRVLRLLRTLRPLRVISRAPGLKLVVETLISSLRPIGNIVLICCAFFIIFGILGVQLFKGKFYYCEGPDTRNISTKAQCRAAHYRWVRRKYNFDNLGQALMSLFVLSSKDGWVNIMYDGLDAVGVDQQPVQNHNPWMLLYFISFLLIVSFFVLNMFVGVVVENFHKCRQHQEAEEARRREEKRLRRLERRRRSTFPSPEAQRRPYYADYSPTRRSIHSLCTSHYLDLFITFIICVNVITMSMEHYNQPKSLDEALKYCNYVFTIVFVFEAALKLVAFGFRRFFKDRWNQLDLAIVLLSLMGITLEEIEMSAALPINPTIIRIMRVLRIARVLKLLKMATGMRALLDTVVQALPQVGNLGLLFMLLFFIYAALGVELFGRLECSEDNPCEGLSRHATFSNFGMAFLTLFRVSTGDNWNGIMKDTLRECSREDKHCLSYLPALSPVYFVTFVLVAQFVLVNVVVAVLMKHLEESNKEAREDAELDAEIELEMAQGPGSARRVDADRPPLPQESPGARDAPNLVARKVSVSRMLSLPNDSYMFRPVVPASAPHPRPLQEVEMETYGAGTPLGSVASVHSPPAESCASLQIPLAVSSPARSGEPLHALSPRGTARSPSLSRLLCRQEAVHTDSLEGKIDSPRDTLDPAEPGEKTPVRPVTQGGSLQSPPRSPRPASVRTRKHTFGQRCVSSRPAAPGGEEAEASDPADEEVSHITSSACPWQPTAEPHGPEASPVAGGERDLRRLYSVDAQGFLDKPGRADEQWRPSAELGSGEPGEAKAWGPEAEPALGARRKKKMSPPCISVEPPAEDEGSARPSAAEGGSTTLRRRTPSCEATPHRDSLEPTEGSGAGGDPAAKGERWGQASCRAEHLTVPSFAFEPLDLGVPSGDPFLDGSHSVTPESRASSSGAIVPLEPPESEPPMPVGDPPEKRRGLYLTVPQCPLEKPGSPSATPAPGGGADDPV

[3] = target: Peroxisome proliferator-activated receptor gamma/Nuclear receptor coactivator 2 (Homo sapiens, UniProt P37231); format: functional;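 note: agonist potency for raising coactivator recruitment to the receptor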
Sequence of Peroxisome proliferator-activated receptor gamma/Nuclear receptor coactivator 2 (P37231 whole entry): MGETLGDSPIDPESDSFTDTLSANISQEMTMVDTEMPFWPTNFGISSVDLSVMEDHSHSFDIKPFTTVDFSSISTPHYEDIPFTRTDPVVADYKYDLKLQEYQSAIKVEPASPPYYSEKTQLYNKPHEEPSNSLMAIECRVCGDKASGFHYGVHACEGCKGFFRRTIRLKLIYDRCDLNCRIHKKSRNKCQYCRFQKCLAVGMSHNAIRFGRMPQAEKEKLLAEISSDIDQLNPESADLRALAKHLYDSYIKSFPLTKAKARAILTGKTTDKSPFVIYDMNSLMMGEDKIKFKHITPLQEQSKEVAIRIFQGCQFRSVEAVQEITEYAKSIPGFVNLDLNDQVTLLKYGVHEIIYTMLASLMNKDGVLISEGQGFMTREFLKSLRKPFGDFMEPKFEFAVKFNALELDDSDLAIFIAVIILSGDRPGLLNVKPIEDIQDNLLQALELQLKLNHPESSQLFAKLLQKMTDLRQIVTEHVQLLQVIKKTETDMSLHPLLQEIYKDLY
Sequence of Peroxisome proliferator-activated receptor gamma/Nuclear receptor coactivator 2 (Q15596 whole entry, further chain): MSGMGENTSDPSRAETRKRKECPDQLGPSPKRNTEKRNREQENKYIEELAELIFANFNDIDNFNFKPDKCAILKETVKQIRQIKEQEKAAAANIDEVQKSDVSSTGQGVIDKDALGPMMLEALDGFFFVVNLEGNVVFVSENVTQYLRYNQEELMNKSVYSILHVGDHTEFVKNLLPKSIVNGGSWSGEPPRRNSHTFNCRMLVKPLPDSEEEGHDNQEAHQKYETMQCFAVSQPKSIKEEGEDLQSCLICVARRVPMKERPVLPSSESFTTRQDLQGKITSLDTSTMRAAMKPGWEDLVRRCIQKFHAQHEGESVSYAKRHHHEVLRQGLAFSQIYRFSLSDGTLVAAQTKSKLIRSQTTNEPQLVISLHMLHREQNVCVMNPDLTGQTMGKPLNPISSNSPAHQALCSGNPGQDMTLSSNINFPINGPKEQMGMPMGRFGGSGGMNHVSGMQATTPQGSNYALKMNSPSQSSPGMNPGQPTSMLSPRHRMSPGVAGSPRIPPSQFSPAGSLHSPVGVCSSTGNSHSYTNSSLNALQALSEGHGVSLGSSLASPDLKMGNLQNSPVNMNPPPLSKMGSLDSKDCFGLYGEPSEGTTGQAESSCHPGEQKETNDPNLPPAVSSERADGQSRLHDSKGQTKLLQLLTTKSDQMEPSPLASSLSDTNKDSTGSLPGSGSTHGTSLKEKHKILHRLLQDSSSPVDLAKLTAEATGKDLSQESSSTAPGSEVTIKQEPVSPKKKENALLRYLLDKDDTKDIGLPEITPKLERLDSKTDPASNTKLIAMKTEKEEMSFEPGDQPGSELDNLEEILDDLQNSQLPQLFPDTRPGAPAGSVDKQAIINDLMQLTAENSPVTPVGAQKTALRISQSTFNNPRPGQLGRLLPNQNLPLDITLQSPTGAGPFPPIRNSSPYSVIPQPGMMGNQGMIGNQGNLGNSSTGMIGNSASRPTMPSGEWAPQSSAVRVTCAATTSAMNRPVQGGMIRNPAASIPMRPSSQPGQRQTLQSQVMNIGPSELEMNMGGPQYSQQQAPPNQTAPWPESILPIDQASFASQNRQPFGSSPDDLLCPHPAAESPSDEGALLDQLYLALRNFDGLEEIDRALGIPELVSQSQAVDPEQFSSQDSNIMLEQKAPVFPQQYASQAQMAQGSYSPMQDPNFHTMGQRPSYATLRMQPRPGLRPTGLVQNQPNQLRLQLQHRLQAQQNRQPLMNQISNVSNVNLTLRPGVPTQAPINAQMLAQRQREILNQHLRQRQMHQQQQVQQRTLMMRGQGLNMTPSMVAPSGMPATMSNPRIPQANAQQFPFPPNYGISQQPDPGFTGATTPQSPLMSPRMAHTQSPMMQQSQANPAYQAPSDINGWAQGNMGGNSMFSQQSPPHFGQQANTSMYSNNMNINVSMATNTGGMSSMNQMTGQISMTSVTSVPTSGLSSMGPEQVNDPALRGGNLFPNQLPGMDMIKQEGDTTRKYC

[4] = target: Peroxisome proliferator-activated receptor gamma/Nuclear receptor coactivator 1 (Homo sapiens, UniProt P37231); format: functional;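 note: agonist potency as compounds enhance coactivator SRC-1 recruitment to PPARgamma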
[5] = target: Peroxisome proliferator-activated receptor gamma/Nuclear receptor coactivator 3 (Homo sapiens, UniProt P37231); format: functional;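 note: agonist potency for raising coactivator recruitment to the receptor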
[6] = HepG2 cell cytotoxicity, dose response, cytotoxicity control, plate reader, cherry-pick, antagonist series (AID 743416); format: functional, cell-based
[7] = LGR2 antagonists, dose response, cell-based, HEK293, CRE-luciferase reporter, cherry pick, set 2 (AID 743343); format: functional;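 note: transfected cells were stimulated with diluted bursicon conditioned medium after compound addition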
[8] = MC4R antagonists, dose response, counter-screen for LGR2 antagonist project, cell-based, plate reader, cherry pick (AID 743444); format: functional;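 note: transfected HEK 293 cells stimulated with alpha-MSH peptide; potency of inhibitors of the alpha-MSH evoked signal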
[9] = target: T1, Calpain-2 catalytic subunit (Sus scrofa, UniProt P43367); assay: pig calpain II inhibitor potency, dose response, biochemical, fluorogenic peptide substrate (AID 1420); format: functional
T1 sequence (P43367 whole entry): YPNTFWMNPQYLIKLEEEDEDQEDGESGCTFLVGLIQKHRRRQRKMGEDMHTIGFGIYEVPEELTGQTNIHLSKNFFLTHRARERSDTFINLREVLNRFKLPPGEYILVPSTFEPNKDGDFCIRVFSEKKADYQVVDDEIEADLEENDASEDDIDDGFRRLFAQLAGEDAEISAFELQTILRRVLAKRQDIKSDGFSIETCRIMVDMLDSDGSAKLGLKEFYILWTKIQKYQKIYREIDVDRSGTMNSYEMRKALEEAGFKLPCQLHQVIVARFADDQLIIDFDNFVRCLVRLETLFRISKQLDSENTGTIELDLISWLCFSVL

[10] = target: Eukaryotic translation initiation factor 4E (Mus musculus, UniProt P63073); assay: eIF4E–eIF4G protein interaction inhibitors, dose response, biochemical, TR-FRET (AID 855); format: functional;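 note: potency for disrupting eIF4E binding to eIF4GI seen as loss of FRET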
Sequence of Eukaryotic translation initiation factor 4E (P63073 whole entry): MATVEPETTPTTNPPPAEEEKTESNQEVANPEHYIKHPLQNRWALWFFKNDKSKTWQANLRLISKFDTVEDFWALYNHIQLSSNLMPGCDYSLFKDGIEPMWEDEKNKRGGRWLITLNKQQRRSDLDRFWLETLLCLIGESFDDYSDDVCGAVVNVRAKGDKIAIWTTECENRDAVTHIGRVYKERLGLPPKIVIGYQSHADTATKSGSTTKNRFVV

[11] = target: T2, Methionyl-tRNA synthetase, putative (Trypanosoma brucei brucei, UniProt Q38C91); format: functional, Trypanosoma brucei brucei strain 927/4 GUTat10.1;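 note: Read-out by fluorescence polarization, run as a confirmatory high-throughput counterscreen; potency of MetRS inhibitors measured by reduced AMP formation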
T2 sequence (Q38C91 whole entry): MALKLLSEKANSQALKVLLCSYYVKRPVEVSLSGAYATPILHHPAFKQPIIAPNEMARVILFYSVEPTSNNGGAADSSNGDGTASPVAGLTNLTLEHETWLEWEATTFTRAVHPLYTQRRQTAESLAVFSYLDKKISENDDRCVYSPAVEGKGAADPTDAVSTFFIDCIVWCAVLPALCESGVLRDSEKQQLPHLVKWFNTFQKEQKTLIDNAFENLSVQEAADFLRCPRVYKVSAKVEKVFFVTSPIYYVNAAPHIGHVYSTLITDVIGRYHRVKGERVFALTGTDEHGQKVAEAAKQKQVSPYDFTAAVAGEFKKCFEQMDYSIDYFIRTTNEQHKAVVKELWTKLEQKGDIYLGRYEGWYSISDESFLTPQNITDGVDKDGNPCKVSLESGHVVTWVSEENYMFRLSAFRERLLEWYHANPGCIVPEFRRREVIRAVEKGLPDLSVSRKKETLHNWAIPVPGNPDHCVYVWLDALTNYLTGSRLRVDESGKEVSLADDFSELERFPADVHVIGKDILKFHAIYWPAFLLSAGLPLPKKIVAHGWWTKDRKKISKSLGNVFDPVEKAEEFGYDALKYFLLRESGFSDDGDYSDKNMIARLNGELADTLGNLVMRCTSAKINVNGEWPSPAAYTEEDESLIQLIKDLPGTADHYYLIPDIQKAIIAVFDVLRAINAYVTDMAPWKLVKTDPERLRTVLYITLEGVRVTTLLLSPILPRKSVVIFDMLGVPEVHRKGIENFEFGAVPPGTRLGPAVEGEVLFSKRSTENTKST

[12] = Counterscreen for inhibitors of Trypanosoma brucei methionyl tRNA synthetase (MetRS): Luminescence-based cell-based high throughput dose response assay to identify compounds that are cytotoxic to Jurkat human T lymphocyte cells.; format: functional
Beta-galactosidase = Beta-galactosidase (Escherichia coli, UniProt Q8VNN2); assay: Dose response counterscreen for EBI2 assay utilizing the enzyme, b-galactosidase.; format: functional
Cytochrome P450 3A4 = Cytochrome P450 3A4 (Homo sapiens, UniProt P08684);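 note: CYP3A4 tested as one member of a cytochrome P450 panel screen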
Sequence of Cytochrome P450 3A4 (P08684 whole entry): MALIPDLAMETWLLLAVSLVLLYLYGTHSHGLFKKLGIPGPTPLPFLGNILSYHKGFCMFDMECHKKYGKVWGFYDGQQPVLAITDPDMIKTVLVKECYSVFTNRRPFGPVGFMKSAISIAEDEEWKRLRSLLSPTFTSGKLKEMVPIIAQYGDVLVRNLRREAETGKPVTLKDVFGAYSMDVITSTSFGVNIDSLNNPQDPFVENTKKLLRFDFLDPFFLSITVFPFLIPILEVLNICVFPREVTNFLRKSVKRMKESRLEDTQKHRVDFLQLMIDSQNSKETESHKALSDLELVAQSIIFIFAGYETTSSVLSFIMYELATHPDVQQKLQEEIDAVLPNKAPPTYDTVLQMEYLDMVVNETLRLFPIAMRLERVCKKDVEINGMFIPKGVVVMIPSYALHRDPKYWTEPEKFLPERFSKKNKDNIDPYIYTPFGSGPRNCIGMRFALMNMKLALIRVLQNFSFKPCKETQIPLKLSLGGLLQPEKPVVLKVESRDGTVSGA

Estrogen receptor = target: T3, Estrogen receptor (Homo sapiens, UniProt P03372);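 note: potency for inhibiting coactivator peptide recruitment to the receptor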
T3 sequence (P03372 whole entry): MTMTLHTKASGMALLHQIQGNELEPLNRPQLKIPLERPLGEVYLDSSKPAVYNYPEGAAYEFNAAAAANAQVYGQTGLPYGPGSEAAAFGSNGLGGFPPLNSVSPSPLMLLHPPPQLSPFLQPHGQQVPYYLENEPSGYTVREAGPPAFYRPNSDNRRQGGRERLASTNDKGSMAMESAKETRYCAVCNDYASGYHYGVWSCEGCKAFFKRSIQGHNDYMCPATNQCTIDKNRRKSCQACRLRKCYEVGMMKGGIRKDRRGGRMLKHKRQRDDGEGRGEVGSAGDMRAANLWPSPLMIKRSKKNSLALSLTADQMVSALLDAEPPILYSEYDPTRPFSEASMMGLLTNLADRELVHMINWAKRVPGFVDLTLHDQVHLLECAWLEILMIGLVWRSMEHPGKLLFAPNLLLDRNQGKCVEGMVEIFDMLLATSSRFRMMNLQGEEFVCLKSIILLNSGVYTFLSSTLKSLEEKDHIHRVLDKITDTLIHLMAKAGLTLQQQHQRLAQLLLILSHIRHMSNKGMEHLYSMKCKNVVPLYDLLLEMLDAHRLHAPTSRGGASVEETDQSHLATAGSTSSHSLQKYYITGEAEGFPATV

Estrogen receptor beta [13] = target: T4, Estrogen receptor beta (Homo sapiens, UniProt Q92731);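 note: recombinant ER-beta bound to coactivator SRC1 peptide in presence of estradiol agonist; inhibitors block coactivator peptide binding and lower the FRET signal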
Estrogen receptor beta [14] = target: T4, Estrogen receptor beta; assay: ERβ–SRC-3 coactivator interaction inhibitors, confirmation, orthogonal assay, biochemical, ELISA, streptavidin-HRP readout (AID 1060)
Cytochrome P450 2C9 = Cytochrome P450 2C9 (Homo sapiens, UniProt P11712)
[15] = target: DNA dC->dU-editing enzyme APOBEC-3A (Homo sapiens, UniProt P31941); assay: Dose Response confirmation of small molecule APOBEC3A DNA Deaminase Inhibitors via a fluorescence-based single-stranded DNA deaminase assay. [Related pubchem assays (depositor defined):AID493011, AID493024]; format: functional
[16] = target: DNA dC->dU-editing enzyme APOBEC-3G (Homo sapiens, UniProt Q9HC16); format: functional;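 note: Dose-response counterscreen measuring inhibition of APOBEC3G DNA deaminase activity, run while confirming APOBEC3A inhibitors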
[17] = NIH-3T3 fibroblast cytotoxicity, dose response, cytotoxicity control, cell-based, fluorescence, Alamar Blue, secondary assay (AID 2327); format: functional;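 note: NIH-3T3 mouse fibroblasts cultured with fluconazole at 8 µg/mL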
[18] = C. albicans growth with fluconazole, confirmation, fluorescence, retest (AID 2467); format: functional, cell-based

- IC50 [1]: > 100 µM (active)
SMILES: CCOC(=O)CN1C(=O)C(Sc2n[nH]c(-c3ccccc3)n2)CCc2ccccc21 (stereo not drawn)

- EC50 [2]: 4.13 µM (active)
SMILES: O=C(Nc1nc(-c2cccs2)cs1)c1cccc(S(=O)(=O)N2CCCCC2)c1

- EC50 [3]: 77.4 µM (not active)
- EC50 [4]: > 79.4 µM (not active)
- EC50 [5]: > 79.4 µM (not active)
SMILES: CCOC(=O)c1sc(NC(=O)CSc2nnnn2-c2ccc(C)c(C)c2)nc1C

SMILES: CC1CCCN(c2ncnc3c2cnn3-c2ccccc2)C1 (stereo not drawn)
- AC50 [6]: > 52 µM (inactive)
- AC50 [7]: 2.89 µM (active)
- AC50 [8]: 6.32 µM (active)

- IC50 [9]: 3.07 µM (not active)
- IC50 [10]: > 64 µM (inactive)
SMILES: Fc1c(F)c(C(F)(F)F)c(F)c(F)c1N1CCN(c2ccc3nnc(C(F)(F)F)n3n2)CC1

- EC50 [3]: > 79.4 µM (not active)
- EC50 [4]: > 79.4 µM (not active)
- EC50 [5]: > 79.4 µM (not active)
SMILES: CCN(CC)CCN(Cc1cc2cc3c(cc2[nH]c1=O)OCCO3)C(=O)NC1CCCCC1

SMILES: Cc1csc(CNc2ncnc3ccc(-c4ccccc4Cl)cc23)c1
- IC50 [11]: 97.8 µM (inactive)
- IC50 [12]: 83.3 µM (inactive)

- EC50 [2]: 13.9 µM (active)
SMILES: O=C(CCCOc1ccccc1)N1CCN(c2ccccc2)CC1

- IC50 (Beta-galactosidase): > 80 µM (inactive)
SMILES: Cc1[nH]c(-c2ccc(F)cc2)cc1C(=O)N1CCN(c2ccccc2F)CC1

- IC50 [1]: > 100 µM (active)
SMILES: CC(C)n1c(CCC(=O)O)ccc1-c1ccccc1

- EC50 [2]: 3.87 µM (active)
SMILES: CCN(CC)S(=O)(=O)c1ccc(C(=O)NCCSc2c[nH]c3ccccc23)cc1

- IC50 [10]: > 64 µM (inactive)
SMILES: Cc1ccc(N2C(=O)c3ccccc3C2(O)c2ncc[nH]2)cc1 (stereo not drawn)

- EC50 [3]: 24.2 µM (not active)
- EC50 [4]: 36.8 µM (not active)
- EC50 [5]: 49.5 µM (not active)
- IC50 [11]: 82.2 µM (inactive)
SMILES: Fc1ccccc1CSc1nc2ncc(Br)cc2[nH]1

- IC50 (Beta-galactosidase): > 80 µM (inactive)
- AC50 (Cytochrome P450 3A4): 28.2 µM (inconclusive)
SMILES: O=C(COc1ccc(Br)cc1)N1CCC(c2ccccc2)C1 (stereo not drawn)

- EC50 [2]: 5.73 µM (active)
SMILES: CCn1c(CSc2nc3ccccc3s2)nc2ccccc21

- IC50 [1]: > 100 µM (active)
SMILES: Cc1ccc(C(C)C)c(OCCN(C)C)c1

- IC50 (Estrogen receptor): 19.4 µM (active)
- IC50 (Estrogen receptor beta [13]): > 50 µM (not active)
- IC50 (Estrogen receptor beta [14]): < 0.023 µM (not active)
- AC50 (Cytochrome P450 3A4): 28.2 µM (inconclusive)
- AC50 (Cytochrome P450 2C9): 6.31 µM (inconclusive)
SMILES: O=C1NC(c2ccc(Br)cc2)Nc2sc3c(c21)CCC3 (stereo not drawn)

SMILES: Cc1ccc(C)c(SCC(=O)OCC(=O)c2ccco2)c1
- IC50 (Estrogen receptor): > 50 µM (not active)
- IC50 (Estrogen receptor beta [13]): 6.74 µM (active)
- IC50 (Estrogen receptor beta [14]): 0.0912 µM (not active)
- IC50 [15]: 18 µM (active)
- IC50 [16]: 46.3 µM (active)

- IC50 (Beta-galactosidase): > 80 µM (inactive)
- AC50 (Cytochrome P450 3A4): 20 µM (inconclusive)
SMILES: O=C1C=C(Nc2ccc(Cl)cc2)CC(c2ccc(Cl)cc2)C1 (stereo not drawn)

SMILES: O=C(/C=C/c1ccc(F)cc1)N1CCN(c2ccccn2)CC1
- EC50 [17]: > 160 µM (inactive)
- EC50 [18]: 2.94 µM (active)
- IC50 (Beta-galactosidase): > 80 µM (inactive)

- EC50 [3]: 10.5 µM (not active)
- EC50 [4]: 11 µM (not active)
- EC50 [5]: 15.2 µM (not active)
SMILES: CCOC(=O)c1s/c(=N\C(=O)c2cccc(OC)c2)n(C)c1C

- IC50 [10]: > 64 µM (inactive)
SMILES: CCCCCCCCCC(=O)N/N=C/c1ccc(C)s1

- IC50 [1]: > 100 µM (active)
SMILES: CC1=CCC(/C=N\Nc2n[nH]c3c4ccccc4nc-3n2)CC1 (stereo not drawn)
